Results reported in patent US10167270B2, “Substituted quinazoline compounds and uses thereof for modulating glucocerebrosidase activity” (Northwestern University, priority 2015, dated 2019).
“Also recorded” adds a separate entry of the source. Like-named read-outs stand apart in the source and are kept apart here.

What was measured:
wild-type GCase [1] = biological target: T1, wild-type GCase (Homo sapiens (Human), UniProt P04062); test: GCase enzyme activity assay (4MU-β-Glc, no taurocholate); type: biochemical
T1 sequence (P04062 40-536): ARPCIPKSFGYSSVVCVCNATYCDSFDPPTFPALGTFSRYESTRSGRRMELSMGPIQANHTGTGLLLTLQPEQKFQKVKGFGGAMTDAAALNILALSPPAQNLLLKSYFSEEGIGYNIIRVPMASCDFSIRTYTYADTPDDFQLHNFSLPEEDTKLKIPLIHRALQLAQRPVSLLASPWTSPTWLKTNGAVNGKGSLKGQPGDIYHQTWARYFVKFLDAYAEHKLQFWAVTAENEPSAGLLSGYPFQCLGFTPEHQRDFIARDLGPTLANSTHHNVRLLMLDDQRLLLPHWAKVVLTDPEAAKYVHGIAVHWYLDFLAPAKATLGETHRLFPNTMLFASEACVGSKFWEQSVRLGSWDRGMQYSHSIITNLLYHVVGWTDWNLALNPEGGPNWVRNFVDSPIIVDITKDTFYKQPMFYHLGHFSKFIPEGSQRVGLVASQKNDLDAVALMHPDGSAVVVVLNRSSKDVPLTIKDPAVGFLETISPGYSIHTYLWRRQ
Description: In previous studies, high concentrations of taurocholate (4-10 mM) were used to improve the signal in GCase enzyme activity assays^16,27,28. […] Here we describe our modifications of the substituents on the quinazoline ring.
4-Methylumbelliferyl β-D-glucopyranoside (4MU-β-Glc), 4-methylumbelliferyl α-D-glucopyranoside,4-methylumbelliferyl α-D-galactopyranoside, and buffer components were purchased from Sigma-Aldrich (St. Louis, Mo.). The recombinant wild-type GCase enzyme velaglucerase alfa (Vpriv®, Shire Human Genetic Therapies, Inc.), acid α-glucosidase enzyme alglucosidase alfa (Lumizyme®, Genzyme Corporation), α-galactosidase A enzyme agalsidase beta (Fabrazyme®, Genzyme Corporation) were used in activity assays. […] A solution of 1 M sodium hydroxide and 1 M glycine (pH 10) was used as the stop solution for all three enzyme activity assays.
The compounds in DMSO solution (0.5 μL/well) were transferred to a black 96-well plate (the final titration started from 100 μM, a 12 or 24-point 2-fold dilution series). […] After 5 min of incubation at room temperature, the enzyme reaction was initiated by the addition of blue substrate (4MU-13-Glc) (33 μL/well). The final concentration of the blue substrate was 1.5 mM. The blue substrate reaction was terminated by the addition of 33 μL/well stop solution (1 M NaOH and 1 M glycine mixture, pH 10) after 30 min of incubation at 37° C. […] The selected compounds were further assayed under pH 5.0 and pH 7.0 to evaluate their selectivity under various pH conditions.

wild-type GCase [2] = biological target: T1, wild-type GCase; test: Fluorescence thermal shift analysis; type: binding; conditions: pH 5.0, in words
Source text: Compounds shown to act as pharmacological chaperones for GCase (or other lysosomal enzymes) also stabilize the enzyme against thermal denaturation. A fluorescent thermal shift assay was developed to evaluate the binding affinity of ligands with protein^30. […] The maximum thermal shift of these compounds corresponded to their inhibitory activity at pH 5.0.
A robotic pipeline in the High Throughput Analysis Laboratory (HTAL) was used for protein ligand screening by fluorescence thermal shift (FTS) analysis. The pipeline used a Mosquito robot (TTP Labtech) for protein dispensing and an Echo 550 (Labcyte) to add compounds. Thermal scanning coupled with fluorescence detection was performed on a real-time PCR machine CFX384 (Bio-Rad Laboratories). The assay was run in 384-well PCR plates, using 10 μL citric acid/K2HPO4 buffer (50 mM citric acid, 150 mM K2HPO4, pH 5.0) per well. The assay concentration for protein was 1 μM and that for Sypro Orange (Invitrogen) was 5×. Protein was premixed with Sypro Orange and dispensed to a plate first, and compounds were added. Final concentrations of compounds ranged from 0.5 to 200 μM. Then the plate was sealed with an optical seal, shaken, and centrifuged. The thermal scan was from 10 to 95° C. with a temperature ramp rate of 1.5° C./min. The fluorescence was recorded every 10 sec. Data analysis and report generation were performed using the in-house software excelFTS.

acid α-glucosidase (GAA) = acid α-glucosidase (GAA) (Homo sapiens (Human), UniProt P10253); test: Enzyme selectivity assay, acid α-glucosidase; type: biochemical; conditions: up to 100 μM
Source text: (§1) Louis, Mo.). The recombinant wild-type GCase enzyme velaglucerase alfa ([…] Human Genetic Therapies, Inc.), acid α-glucosidase enzyme alglucosidase alfa (Lumizyme®, Genzyme Corporation), α-galactosidase A enzyme agalsidase beta (Fabrazyme®, Genzyme Corporation) were used in activity assays. […] The acid α-glucosidase and α-galactosidase A enzyme activity assay methods were similar to the GCase enzyme activity assay above with slight modifications.

α-galactosidase A (GLA) = α-galactosidase A (GLA) (Homo sapiens (Human), UniProt P06280); test: Enzyme selectivity assay, α-galactosidase A; type: biochemical; conditions: up to 100 μM
Chain of α-galactosidase A (GLA) (P06280 32-429): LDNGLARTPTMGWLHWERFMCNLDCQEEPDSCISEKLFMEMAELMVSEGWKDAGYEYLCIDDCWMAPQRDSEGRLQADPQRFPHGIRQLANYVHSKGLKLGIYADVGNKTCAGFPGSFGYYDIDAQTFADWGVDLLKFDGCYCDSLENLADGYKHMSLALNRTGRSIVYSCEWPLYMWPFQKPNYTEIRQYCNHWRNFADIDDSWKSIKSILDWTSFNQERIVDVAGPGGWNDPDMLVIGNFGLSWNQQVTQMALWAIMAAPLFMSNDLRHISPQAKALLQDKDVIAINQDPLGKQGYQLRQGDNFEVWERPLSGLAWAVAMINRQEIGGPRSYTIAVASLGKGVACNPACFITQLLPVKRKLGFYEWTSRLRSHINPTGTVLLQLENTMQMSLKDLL
Source text: as §1

[3] = biological target: T2, N370S mutant GCase in patient fibroblasts (Homo sapiens (Human), UniProt P04062, N370S); test: GCase protein level in N370S fibroblasts by Western blot; type: cell-based; conditions: 3 days treatment
T2 sequence (P04062 40-536 N409S): as the sequence (P04062 40-536) above, with N370S counted along it
Description: (§2) The N370S fibroblast cell line was obtained from Coriell, GM00372, cultured in DMEM medium (Life Tech) including 1% v/v L-glutamine 200 mM (Life Tech), 1% v/v pen strep (Life Tech), 10% FBS (Life Tech) at 37° C. and 5% CO2 and treated with different compounds at 0.2 μM and 2 μM. After a 3-day treatment, cells were washed with inhibitor free media 3 times and fed with inhibitor free media for 1 day, followed by 1% Triton X-100 lysis buffer to lyse cells. Protein concentrations were measured with a Bradford kit (Thermo), and the GCase activity was determined at pH 5.5.
Proteins were denatured in 20% SDS sample buffer at 100° C. for 10 min; 10% Bis-Tris gel (Life Tech) was used for gels; Trans-Blot Turbo PVDF kit (Bio-Rad) was used for membrane transfer, and Chemidoc MP system (Bio-Rad) was used to analyze the blots.

[4] = biological target: T2, N370S mutant GCase in patient fibroblasts; test: GCase activity in N370S fibroblasts after compound treatment; type: cell-based; conditions: 3-day treatment
Description: as §2

GCase = GCase (Homo sapiens (Human), UniProt P04062); test: Fluorescence polarization assay; type: binding
Chain of GCase (P04062 40-536): as the sequence (P04062 40-536) above
Description: The fluorescent probe 3 (25 nL/well, 50 nM final concentration) was transferred to a 384-well black plate using a Labcyte Echo 550 Liquid Handler system. The 25 μL/well enzyme dilutions with GCase enzyme activity buffer were added to the plate, which was shaken at room temperature in dark for 20 min. The final titration was 5 nM to 10 μM, 10 concentrations, 2 times dilution. The fluorescence polarization was measured in Molecular Devices Analyst GT with Ex=535 nm and Em=580 nm, G Factor=1.05.

[5] = Table 5, pH 5.9, mean ± SD, read-out: IC50
[6] = pH 5.0, mean ± SD, read-out: IC50 pH 5.0
[7] = pH 7.0, mean ± SD, read-out: IC50 pH 7.0

## c1cncc(-c2nc(NC3CCc4ccccc4C3)c3ccccc3n2)c1 (single isomer, unassigned) [Compound 9a]
wild-type GCase [1]
  decrease of inhibitory activity at pH 5.0 compared to pH 5.9: 3 fold
wild-type GCase [2]
  stabilization of GCase (melting point change): stabilize wild-type GCase in a dose-dependent manner; also recorded: increased the GCase melting point in a dose-dependent manner
Acid α-glucosidase (GAA)
  activity of acid α-glucosidase on compound treatment: not significantly changed
α-galactosidase A (GLA)
  activity of α-galactosidase A on compound treatment: not significantly changed

## c1ccc(Nc2nc(-c3cccnc3)nc3ccccc23)cc1 [Compound 8a]
wild-type GCase [1]
  GCase inhibitory activity in words: lost activity
wild-type GCase [1]; Table 3, pH 5.9, mean ± SD
  IC50: inactive
wild-type GCase [2]
  stabilization of GCase (melting point change): did not change the melting points significantly

## c1cncc(-c2nc(N[C@@H]3CCc4ccccc4C3)c3ccccc3n2)c1 [Compound 9b]
wild-type GCase [1]
  decrease of inhibitory activity at pH 5.0 compared to pH 5.9: 3 fold
wild-type GCase [2]
  stabilization of GCase (melting point change): stabilize wild-type GCase in a dose-dependent manner; also recorded: increased the GCase melting point in a dose-dependent manner
Acid α-glucosidase (GAA)
  activity of acid α-glucosidase on compound treatment: not significantly changed
α-galactosidase A (GLA)
  activity of α-galactosidase A on compound treatment: not significantly changed

## Cc1cncc(-c2nc(NC3Cc4ccccc4C3)c3ccccc3n2)c1 [Compound 11b, N-(2,3-dihydro-1H-inden-2-yl)-2-(5-methylpyridin-3-yl)quinazolin-4-amine]
wild-type GCase [1]; [5]
  IC50: 12.5 ± 1.7 nM

## Cc1ccc(-c2nc(NC3Cc4ccccc4C3)c3ccccc3n2)cn1 [Compound 11c, N-(2,3-dihydro-1H-inden-2-yl)-2-(6-methylpyridin-3-yl)quinazolin-4-amine]
wild-type GCase [1]; [5]
  IC50: 29.4 ± 3.6 nM

## c1ccc(-c2nc(NC3Cc4ccccc4C3)c3ccccc3n2)cc1 [Compound 11d, N-(2,3-dihydro-1H-inden-2-yl)-2-phenylquinazolin-4-amine]
wild-type GCase [1]; [5]
  IC50: 6.5 ± 0.7 nM
wild-type GCase [1]; [6]
  IC50: 10.5 ± 1.5 nM
wild-type GCase [1]; [7]
  IC50: 9.4 ± 1.4 nM
wild-type GCase [2]
  stabilization of GCase (melting point change): stabilize wild-type GCase in a dose-dependent manner; also recorded: increased the GCase melting point in a dose-dependent manner
Acid α-glucosidase (GAA)
  activity of acid α-glucosidase on compound treatment: not significantly changed
α-galactosidase A (GLA)
  activity of α-galactosidase A on compound treatment: not significantly changed
[3]
  concentration of GCase protein: significantly increased the concentration of GCase

## c1ccc2c(c1)CC(Nc1nc(-c3ccncc3)nc3ccccc13)C2 [Compound 11e, N-(2,3-dihydro-1H-inden-2-yl)-2-(pyridin-4-yl)quinazolin-4-amine]
wild-type GCase [1]; [5]
  IC50: 168 ± 18 nM

## c1csc(-c2nc(NC3Cc4ccccc4C3)c3ccccc3n2)c1 [Compound 11f, N-(2,3-dihydro-1H-inden-2-yl)-2-(thiophen-2-yl)quinazolin-4-amine]
wild-type GCase [1]; [6]
  IC50: 13.9 ± 1.9 nM
wild-type GCase [1]; pH 5.0 vs pH 5.9
  decrease of inhibitory activity at pH 5.0 compared to pH 5.9: only dropped slightly
wild-type GCase [1]; pH 5.9, mean ± SD, read-out: IC50 pH 5.9
  IC50: 8.2 ± 1 nM
wild-type GCase [1]; [7]
  IC50: 12.9 ± 2 nM
wild-type GCase [2]
  stabilization of GCase (melting point change): stabilize wild-type GCase in a dose-dependent manner; also recorded: increased the GCase melting point in a dose-dependent manner
Acid α-glucosidase (GAA)
  activity of acid α-glucosidase on compound treatment: not significantly changed
α-galactosidase A (GLA)
  activity of α-galactosidase A on compound treatment: not significantly changed
[3]
  concentration of GCase protein: significantly increased the concentration of GCase

## c1coc(-c2nc(NC3Cc4ccccc4C3)c3ccccc3n2)c1 [Compound 11h, N-(2,3-dihydro-1H-inden-2-yl)-2-(furan-2-yl)quinazolin-4-amine]
wild-type GCase [1]; [5]
  IC50: 21.1 ± 2.4 nM

## OC[C@H]1CNC[C@@H](O)[C@@H]1O [IFG, Isofagomine, reference compound]
wild-type GCase [2]
  stabilization of GCase (melting point change): stabilize wild-type GCase in a dose-dependent manner
[3]
  concentration of GCase protein: did not have an effect
[4]
  GCase activity in patient cells: had no effect

## CN(C)c1ccc2c(-c3ccc(C(=O)NCCCCCC(=O)Nc4ccc(-c5nc(NC6Cc7ccccc7C6)c6ccccc6n5)cc4)cc3C(=O)O)c3ccc(=[N+](C)C)cc-3oc2c1 [compound 158]
GCase
  Kd: 79 nM

## CN(C)c1ccc2c(-c3ccc(C(=O)NCCOCCOCC(=O)Nc4ccc(-c5nc(NC6Cc7ccccc7C6)c6ccccc6n5)cc4)cc3C(=O)O)c3ccc(=[N+](C)C)cc-3oc2c1 [compound 159]
GCase
  Kd: 126 nM

## CN(C)c1ccc2c(-c3ccc(C(=O)NCCOCCOCCOCCOCCC(=O)NCCCCCC(=O)Nc4ccc(-c5nc(NC6Cc7ccccc7C6)c6ccccc6n5)cc4)cc3C(=O)O)c3ccc(=[N+](C)C)cc-3oc2c1 [compound 160]
GCase
  Kd: 7.1 nM
